Data published in patent publication US6936585B2, “Corticotropin releasing factor 2 receptor agonists” (priority 2002, dated 2005).
Peptide text beside a SMILES is read from it.

Assays:
CRF1R = target: T1, CRF1R (Homo sapiens, UniProt P34998); assay: CRF1R agonist activation (EC50 / Emax), called comparative CRF binding; type: cell-based; settings: for Emax: read-out: CRF1R Emax; for EC50: read-out: CRF1R EC50
T1 sequence (P34998 24-415): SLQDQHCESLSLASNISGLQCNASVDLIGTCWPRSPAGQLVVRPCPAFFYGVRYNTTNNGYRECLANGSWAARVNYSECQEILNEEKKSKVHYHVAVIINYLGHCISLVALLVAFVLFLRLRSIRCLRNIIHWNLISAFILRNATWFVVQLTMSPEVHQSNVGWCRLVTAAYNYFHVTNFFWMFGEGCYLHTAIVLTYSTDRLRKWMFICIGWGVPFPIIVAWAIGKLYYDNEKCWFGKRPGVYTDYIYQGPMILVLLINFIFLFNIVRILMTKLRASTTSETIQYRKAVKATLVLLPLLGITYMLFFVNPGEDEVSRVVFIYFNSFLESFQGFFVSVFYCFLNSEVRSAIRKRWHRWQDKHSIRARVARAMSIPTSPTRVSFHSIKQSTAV
In short: (§1)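 Peptides are tested on cells bearing CRF1R or CRF2R, full length or as ligand-binding-domain constructs coupled to reporters or G proteins. Activation is scored by cAMP rise, measured in lysates or by CRE-reporter output, against vehicle control.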

CRF2R = target: T2, CRF2R (Homo sapiens, UniProt Q13324); assay: CRF2R agonist activation (EC50 / Emax), called comparative CRF binding; type: cell-based; settings: for Emax: read-out: CRF2R Emax; for EC50: read-out: CRF2R EC50
T2 sequence (Q13324 1-411): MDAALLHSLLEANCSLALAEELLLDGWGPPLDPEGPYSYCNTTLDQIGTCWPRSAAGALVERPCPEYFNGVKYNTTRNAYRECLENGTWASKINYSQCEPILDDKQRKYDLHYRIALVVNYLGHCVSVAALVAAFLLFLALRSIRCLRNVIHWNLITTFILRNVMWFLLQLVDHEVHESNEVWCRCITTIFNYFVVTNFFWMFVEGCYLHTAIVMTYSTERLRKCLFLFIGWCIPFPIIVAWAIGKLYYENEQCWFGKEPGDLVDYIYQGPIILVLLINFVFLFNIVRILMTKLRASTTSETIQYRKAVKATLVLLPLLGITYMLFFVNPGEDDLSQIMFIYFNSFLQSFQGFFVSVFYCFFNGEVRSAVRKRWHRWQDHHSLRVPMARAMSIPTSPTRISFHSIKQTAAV
In short: as §1

SMILES | Emax (CRF1R) | Emax (CRF2R) | EC50 (CRF1R) | EC50 (CRF2R)
CC[C@H](C)[C@H](N)C(=O)N[C@H](C(=O)N[C@@H](CC(C)C)C(=O)N[C@@H](CO)C(=O)N[C@@H](CC(C)C)C(=O)N[C@@H](CC(=O)O)C(=O)N[C@H](C(=O)N1CCC[C@H]1C(=O)N[C@H](C(=O)NCC(=O)N[C@@H](CC(C)C)C(=O)N[C@@H](CC(C)C)C(=O)N[C@@H](CCC(N)=O)C(=O)N[C@H](C(=O)N[C@@H](CC(C)C)C(=O)N[C@@H](CC(C)C)C(=O)N[C@@H](CCC(=O)O)C(=O)N[C@@H](CCC(N)=O)C(=O)N[C@@H](C)C(=O)N[C@@H](C)C(=O)N[C@@H](C)C(=O)N[C@@H](C)C(=O)N[C@@H](CCCNC(=N)N)C(=O)N[C@@H](CCC(=O)O)C(=O)N[C@@H](CCC(N)=O)C(=O)N[C@@H](C)C(=O)N[C@H](C(=O)N[C@H](C(=O)N[C@@H](CC(N)=O)C(=O)N[C@@H](C)C(=O)N[C@@H](CCCNC(=N)N)C(=O)N[C@H](C(=O)N[C@@H](CC(C)C)C(=O)N[C@@H](C)C(=O)N[C@@H](CCCNC(=N)N)C(=O)N[C@H](C(N)=O)C(C)C)[C@@H](C)CC)[C@@H](C)O)[C@@H](C)O)[C@@H](C)CC)[C@@H](C)CC)C(C)C)C(C)C [compound 134] (H-IVLSLDVPIGLLQILLEQAAAAREQATTNARILARV-NH2) | 7% | 19% | – | –
CC[C@H](C)[C@H](N)C(=O)N[C@H](C(=O)N[C@@H](CC(C)C)C(=O)N[C@@H](CO)C(=O)N[C@@H](CC(C)C)C(=O)N[C@@H](CC(=O)O)C(=O)N[C@H](C(=O)N1CCC[C@H]1C(=O)N[C@H](C(=O)NCC(=O)N[C@@H](CC(C)C)C(=O)N[C@@H](CC(C)C)C(=O)N[C@@H](CCC(N)=O)C(=O)N[C@H](C(=O)N[C@@H](CC(C)C)C(=O)N[C@@H](CC(C)C)C(=O)N[C@@H](CCC(=O)O)C(=O)N[C@@H](CCC(N)=O)C(=O)N[C@@H](C)C(=O)N[C@@H](C)C(=O)N[C@@H](CCCNC(=N)N)C(=O)N[C@@H](C)C(=O)N[C@@H](C)C(=O)N[C@@H](CCCNC(=N)N)C(=O)N[C@@H](CCC(=O)O)C(=O)N[C@@H](CCC(N)=O)C(=O)N[C@@H](C)C(=O)N[C@H](C(=O)N[C@H](C(=O)N[C@@H](CC(N)=O)C(=O)N[C@@H](C)C(=O)N[C@@H](CCCNC(=N)N)C(=O)N[C@H](C(=O)N[C@@H](CC(C)C)C(=O)N[C@@H](C)C(=O)N[C@@H](CCCNC(=N)N)C(=O)N[C@H](C(N)=O)C(C)C)[C@@H](C)CC)[C@@H](C)O)[C@@H](C)O)[C@@H](C)CC)[C@@H](C)CC)C(C)C)C(C)C [compound 135] (H-IVLSLDVPIGLLQILLEQAARAAREQATTNARILARV-NH2) | 6% | 76% | – | –
CC[C@H](C)[C@H](N)C(=O)N[C@H](C(=O)N[C@@H](CC(C)C)C(=O)N[C@@H](CO)C(=O)N[C@@H](CC(C)C)C(=O)N[C@@H](CC(=O)O)C(=O)N[C@H](C(=O)N1CCC[C@H]1C(=O)N[C@H](C(=O)NCC(=O)N[C@@H](CC(C)C)C(=O)N[C@@H](CC(C)C)C(=O)N[C@@H](CCC(N)=O)C(=O)N[C@H](C(=O)N[C@@H](CC(C)C)C(=O)N[C@@H](CC(C)C)C(=O)N[C@@H](CCC(=O)O)C(=O)N[C@@H](CCC(N)=O)C(=O)N[C@@H](CCCNC(=N)N)C(=O)N[C@@H](C)C(=O)N[C@@H](C)C(=O)N[C@@H](CCCNC(=N)N)C(=O)N[C@@H](CCC(=O)O)C(=O)N[C@@H](CCC(N)=O)C(=O)N[C@@H](C)C(=O)N[C@H](C(=O)N[C@H](C(=O)N[C@@H](CC(N)=O)C(=O)N[C@@H](C)C(=O)N[C@@H](CCCNC(=N)N)C(=O)N[C@H](C(=O)N[C@@H](CC(C)C)C(=O)N[C@@H](C)C(=O)N[C@@H](CCCNC(=N)N)C(=O)N[C@H](C(N)=O)C(C)C)[C@@H](C)CC)[C@@H](C)O)[C@@H](C)O)[C@@H](C)CC)[C@@H](C)CC)C(C)C)C(C)C [compound 136] (H-IVLSLDVPIGLLQILLEQRAAREQATTNARILARV-NH2; N-terminus assumed) | 8% | 68% | > 0.1 µM | 0.0234 µM
CC[C@H](C)[C@H](N)C(=O)N[C@H](C(=O)N[C@@H](CC(C)C)C(=O)N[C@@H](CO)C(=O)N[C@@H](CC(C)C)C(=O)N[C@@H](CC(=O)O)C(=O)N[C@H](C(=O)N1CCC[C@H]1C(=O)N[C@H](C(=O)NCC(=O)N[C@@H](CC(C)C)C(=O)N[C@@H](CC(C)C)C(=O)N[C@@H](CCC(N)=O)C(=O)N[C@H](C(=O)N[C@@H](CC(C)C)C(=O)N[C@@H](CC(C)C)C(=O)N[C@@H](CCC(=O)O)C(=O)N[C@@H](CCC(N)=O)C(=O)N[C@@H](CCCNC(=N)N)C(=O)N[C@@H](C)C(=O)N[C@@H](CCCNC(=N)N)C(=O)N[C@@H](C)C(=O)N[C@@H](C)C(=O)N[C@@H](CCCNC(=N)N)C(=O)N[C@@H](CCC(=O)O)C(=O)N[C@@H](CCC(N)=O)C(=O)N[C@@H](C)C(=O)N[C@H](C(=O)N[C@H](C(=O)N[C@@H](CC(N)=O)C(=O)N[C@@H](C)C(=O)N[C@@H](CCCNC(=N)N)C(=O)N[C@H](C(=O)N[C@@H](CC(C)C)C(=O)N[C@@H](C)C(=O)N[C@@H](CCCNC(=N)N)C(=O)N[C@H](C(N)=O)C(C)C)[C@@H](C)CC)[C@@H](C)O)[C@@H](C)O)[C@@H](C)CC)[C@@H](C)CC)C(C)C)C(C)C [compound 137] (H-IVLSLDVPIGLLQILLEQRARAAREQATTNARILARV-NH2; N-terminus assumed) | 4% | 100% | – | –
CC[C@H](C)[C@H](N)C(=O)N[C@H](C(=O)N[C@@H](CC(C)C)C(=O)N[C@@H](CO)C(=O)N[C@@H](CC(C)C)C(=O)N[C@@H](CC(=O)O)C(=O)N[C@H](C(=O)N1CCC[C@H]1C(=O)N[C@H](C(=O)NCC(=O)N[C@@H](CC(C)C)C(=O)N[C@@H](CC(C)C)C(=O)N[C@@H](CCC(N)=O)C(=O)N[C@H](C(=O)N[C@@H](CC(C)C)C(=O)N[C@@H](CC(C)C)C(=O)N[C@@H](CCC(=O)O)C(=O)N[C@@H](CCC(N)=O)C(=O)N[C@@H](C)C(=O)N[C@@H](C)C(=O)N[C@@H](CCCNC(=N)N)C(=O)N[C@@H](CCC(=O)O)C(=O)N[C@@H](CCC(N)=O)C(=O)N[C@@H](C)C(=O)N[C@H](C(=O)N[C@H](C(=O)N[C@@H](CC(N)=O)C(=O)N[C@@H](C)C(=O)N[C@@H](CCCNC(=N)N)C(=O)N[C@H](C(=O)N[C@@H](CC(C)C)C(=O)N[C@@H](C)C(=O)N[C@@H](CCCNC(=N)N)C(=O)N[C@H](C(N)=O)C(C)C)[C@@H](C)CC)[C@@H](C)O)[C@@H](C)O)[C@@H](C)CC)[C@@H](C)CC)C(C)C)C(C)C [compound 138] (H-IVLSLDVPIGLLQILLEQAAREQATTNARILARV-NH2; N-terminus assumed) | 5% | 46% | > 0.1 µM | 0.059 µM
CC[C@H](C)[C@H](N)C(=O)N[C@H](C(=O)N[C@@H](CC(C)C)C(=O)N[C@@H](CO)C(=O)N[C@@H](CC(C)C)C(=O)N[C@@H](CC(=O)O)C(=O)N[C@H](C(=O)N1CCC[C@H]1C(=O)N[C@H](C(=O)NCC(=O)N[C@@H](CC(C)C)C(=O)N[C@@H](CC(C)C)C(=O)N[C@@H](CCC(N)=O)C(=O)N[C@H](C(=O)N[C@@H](CC(C)C)C(=O)N[C@@H](CC(C)C)C(=O)N[C@@H](CCC(=O)O)C(=O)N[C@@H](CCC(N)=O)C(=O)N[C@@H](C)C(=O)N[C@@H](C)C(=O)N[C@@H](C)C(=O)N[C@@H](CCCNC(=N)N)C(=O)N[C@@H](CCC(=O)O)C(=O)N[C@@H](CCC(N)=O)C(=O)N[C@@H](C)C(=O)N[C@H](C(=O)N[C@H](C(=O)N[C@@H](CC(N)=O)C(=O)N[C@@H](C)C(=O)N[C@@H](CCCNC(=N)N)C(=O)N[C@H](C(=O)N[C@@H](CC(C)C)C(=O)N[C@@H](C)C(=O)N[C@@H](CCCNC(=N)N)C(=O)N[C@H](C(N)=O)C(C)C)[C@@H](C)CC)[C@@H](C)O)[C@@H](C)O)[C@@H](C)CC)[C@@H](C)CC)C(C)C)C(C)C [compound 139] (H-IVLSLDVPIGLLQILLEQAAAREQATTNARILARV-NH2; N-terminus assumed) | 4% | 60% | > 0.1 µM | 0.0426 µM
CC[C@H](C)[C@H](N)C(=O)N[C@H](C(=O)N[C@@H](CC(C)C)C(=O)N[C@@H](CO)C(=O)N[C@@H](CC(C)C)C(=O)N[C@@H](CC(=O)O)C(=O)N[C@H](C(=O)N1CCC[C@H]1C(=O)N[C@H](C(=O)NCC(=O)N[C@@H](CC(C)C)C(=O)N[C@@H](CC(C)C)C(=O)N[C@@H](CCC(N)=O)C(=O)N[C@H](C(=O)N[C@@H](CC(C)C)C(=O)N[C@@H](CC(C)C)C(=O)N[C@@H](CCC(=O)O)C(=O)N[C@@H](CCC(N)=O)C(=O)N[C@@H](C)C(=O)N[C@@H](CCCNC(=N)N)C(=O)N[C@@H](C)C(=O)N[C@@H](C)C(=O)N[C@@H](C)C(=O)N[C@@H](CCCNC(=N)N)C(=O)N[C@@H](CCC(=O)O)C(=O)N[C@@H](CCC(N)=O)C(=O)N[C@@H](C)C(=O)N[C@H](C(=O)N[C@H](C(=O)N[C@@H](CC(N)=O)C(=O)N[C@@H](C)C(=O)N[C@@H](CCCNC(=N)N)C(=O)N[C@H](C(=O)N[C@@H](CC(C)C)C(=O)N[C@@H](C)C(=O)N[C@@H](CCCNC(=N)N)C(=O)N[C@H](C(N)=O)C(C)C)[C@@H](C)CC)[C@@H](C)O)[C@@H](C)O)[C@@H](C)CC)[C@@H](C)CC)C(C)C)C(C)C [compound 141] (H-IVLSLDVPIGLLQILLEQARAAAREQATTNARILARV-NH2) | 7% | 29% | – | –
